“Also recorded” adds a separate entry of the source. l = locked nucleic acid (LNA); [5mC] = 5-methylcytosine; d = 2'-deoxy (DNA)
Tests used:
Assay type in all cases: physicochemical
[1] = Compaction properties (tabletability, tablet tensile strength, compaction simulator) of sodium caprate forms; conditions: tablets of each form; particle sizes about 37-53, 150-300, 600-710 μm; FIGS. 5A-5C
Procedure: The tabletability of different particle sizes and forms of sodium caprate was obtained by measuring the tensile strength of tablets compressed using a compaction simulator. FIGS. 5A-5C show the results of tabletability with laboratory-scale amounts of sodium caprate with particle sizes of about 37 to 53 μm, of about 150 to 300 μm, and of about 600 to 710 μm, respectively.
Tablets were produced with each of the sodium caprate forms, and compaction properties were assessed.

[2] = Dissolution profile of tablets comprising Form A sodium caprate and a macromolecule; conditions: Example 12 Formulation 1 tablets; pH 6.8 phosphate buffer at 37° C.; FIGS. 20A-20B
Source text: The dissolution profiles of tablets comprising Form A sodium caprate and an ASO, prepared according to Example 12, Formulation 1, are illustrated in FIG. 20A. […] (mimicking the small intestinal condition). This allows for maximum absorption enhancement. The dissolution profile of tablets comprising Form A sodium caprate and the MEDI7219 Peptide is illustrated in FIG. 20B. […] (mimicking the small intestinal condition).

[3] = Compaction properties (tabletability, tablet tensile strength, compaction simulator) of sodium caprate forms; conditions: tablets of each form; high pressure = above approximately 50 MPa
[4] = Karl Fischer titration, water content of sodium caprate forms; conditions: forms prepared as in Example 1
Procedure: In some embodiments, the water content of sodium caprate is determined by Karl Fischer titration. Karl Fischer titration uses coulometric or volumetric titration to determine trace amounts of water in a sample. Methods of performing Karl Fischer titration are known to the skilled artisan. In some embodiments, Form A or Form B sodium caprate has a lower water content compared with Form C or Form D water content. In some embodiments, the sodium caprate is Form A sodium caprate characterized by a water content by Karl Fischer titration below 2%, below 1.9%, below 1.8%, below 1.7%, below 1.6%, below 1.5%, or below 1.4%. In some embodiments, Form A sodium caprate has a water content of about 0.4% to about 1.7%. Form B sodium caprate has a water content ≤1%. Form C sodium caprate has a water content of about 2% to about 3%, and Form D sodium caprate has a water content of about 2.5% to about 4%. In some embodiments, the sodium caprate used for making the oral tablet has a water content of less than about 2% as measured by Karl Fischer titration. In some embodiments, the sodium caprate has a water content of less than about 1.5%. In some embodiments, the sodium caprate has a water content of about 1%, about 1.1%, about 1.2%, about 1.3%, about 1.4%, about 1.5%, about 1.6%, about 1.7%, about 1.8%, about 1.9%, or about 2.0%. […]

| Compound | compaction properties / tabletability [1] | release (dissolution) from tablets [2] | sticking tendency during tableting [3] | Amount of Water (%) [4] |
| --- | --- | --- | --- | --- |
| CCCCCCCCCC(=O)[O-].[Na+] [Form A, sodium caprate] | best compaction properties | rapid and concomitant release | no observable sticking at high pressure | – |
| CCCCCCCCCC(=O)[O-].[Na+] [Form B, sodium caprate] | poor tabletability | – | high sticking tendency | – |
| CCCCCCCCCC(=O)[O-].[Na+] [Form C, sodium caprate] | poor tabletability; also recorded: worst tabletability | – | high sticking tendency | 2-3% |
| CCCCCCCCCC(=O)[O-].[Na+] [Form D, sodium caprate] | poor tabletability; also recorded: worst tabletability | – | high sticking tendency | – |
| GM5CAttctaatagcAGM5C (antisense GCATTCTAATAGCAGC; sugars from the 5' end l3 d10 l3, [5mC] at 2, 16, backbone not given here) [MALAT1, antisense oligonucleotide targeting MALAT1, with LNA nucleosides and 5-methylcytidine, reference compound] | – | rapid and concomitant release | – | – |

From patent US20250152516A1, “COMPRESSIBLE SODIUM CAPRATE FORMULATIONS” (AstraZeneca AB, priority 2022, published 2025)
